Reference: patent publication US20230219956A1 (BETTA PHARMACEUTICALS CO.,LTD, priority 2019, published 2023)

Key:
MIA-PACA-2 cells = test: Cell proliferation assay, MIA-PACA-2 cells (Cell-titer Glo); type: cell-based; settings: Homo sapiens, 96 h incubation
Method: (§1) Pave the MIA-PACA-2 cells into a 96-well ultra-low adsorption plate at 600 cells, 160 μL/well. After incubating overnight, compound solutions of gradient concentration was prepared, and added 40 μL of DMSO solution of the test compound of each concentration to the cells of each well. The final concentration of the compound is 10000, 2000, 400, 80, 16, 3.2, 0.64, 0.12, 0.025, 0 nM (the final concentration of DMSO is 0.25%). Incubated for 96 h at 37° C. and 5% CO2. 50 μL of Cell-titer Glo working solution was added to each well, shaked and mixed, and incubated at room temperature for 10 minutes. The multi-functional microplate reader read the luminescence value, and converted the luminescence value reading into inhibition percentage.
(§2) Inhibition percentage=(maximum value−reading)/(maximum value−minimum value)*100.
(§3) The “maximum value” was the DMSO control, the “minimum value” indicates the cell-free control group.
(§4) Graphpad Prism software was used to perform curve fitting and obtain IC50 value.
Refer to Table 3 for the IC50 data of some compounds in the examples inhibiting MIA-PACA-2 cells.

H358 cells = test: Cell proliferation assay, H358 cells (Cell-titer Glo); type: cell-based; settings: Homo sapiens, NCI-H358, 96 h incubation
Method: as §1, with “the H358” for “the MIA-PACA-2”, “cells on” for “cells into”, “plate with 2000 cells and 190” for “plate at 600 cells, 160”, “added 10” for “added 40”, “10000, 3333.3, 1111.1, 370.4, 123.5, 41.2, 13.7, 4.6, 1.5,” for “10000, 2000, 400, 80, 16, 3.2, 0.64, 0.12, 0.025,”
as §2, §3, §4
Refer to table 3 for the IC50 data of some compounds in the Examples for inhibiting H358 cells.

IC50 (MIA-PACA-2 cells) [nM]	IC50 (H358 cells) [nM]	Structure (SMILES)
388	392	C=CC(=O)N1CC2(CCN(c3nc(C4CCN(C)CC4)nc4c(OC(C)C)c(-c5c(C)ccc6[nH]ncc56)c(CC)cc34)CC2)C1 [Example 27]
8.9	4.4	C=CC(=O)N1CC2(CCN(c3nc(C4CCN(C5COC5)CC4)nc4c(OCC(F)(F)F)c(-c5c(C)ccc6[nH]ncc56)c(C=C)cc34)CC2)C1 [Example 65, 1-(7-(7-(5-methyl-1H-indazol-4-yl)-2-(1-(oxacyclobutan-3-yl)piperidin-4-yl)-8-(2,2,2-trifluoroethoxy)-6-vinylquinazolin-4-yl)-2,7-diazspiro [3.5]nonan-2-yl) propyl-2-en-1-one]
16.7	17.9	C=CC(=O)N1CC2(CCN(c3nc(C4CCN(C)CC4)nc4c(OCC(F)(F)F)c(-c5c(C)ccc6[nH]ncc56)c(Cl)cc34)CC2)C1 [Example 32, 1-(7-(6-chloro-7-(5-methyl-1H-indazol-4-yl)-2-(1-methylpiperidin-4-yl)-8-(2,2,2-trifluoroethoxy)quinazoline-4-yl)-2,7-diazaspiro[3.5]nonan-2-yl)prop-2-en-1-one]
33.7	37.6	C=CC(=O)N1CC2(CCN(c3nc(C4CCN(Cc5ccccc5)CC4)nc4c(OCC(F)(F)F)c(-c5c(C)ccc6[nH]ncc56)c(C=C)cc34)CC2)C1 [Example 77, 1-(7-(2-(1-benzylpiperidin-4-yl)-7-(5-methyl-1H-indazol-4-yl)-8-(2,2,2-trifluoroethoxy)-6-vinylquinazolin-4-yl)-2,7-diazarospiro [3.5]nonan-2-yl) propyl-2-en-1-one]
278	243	C=CC(=O)N1CC2(C1)CN(c1nc(C3CCN(C)CC3)nc3c(OCC(F)(F)F)c(-c4c(C)ccc5[nH]ncc45)c(C=C)cc13)C2 [Example 50, 1-(6-(7-(5-methyl-1H-indazol-4-yl)-2-(1-methylpiperidin-4-yl)-8-(2,2,2-trifluoroethoxy)-6-vinylquinazolin-4-yl)-2,6-diazaspiro[3.3]heptane-2-yl)prop-2-en-1-one]
3.5	2.7	C=CC(=O)N1CC2(CCN(c3nc(C4CCN(C5CCOC5)CC4)nc4c(OCC(F)(F)F)c(-c5c(C)ccc6[nH]ncc56)c(C=C)cc34)CC2)C1 (stereo not shown) [Example 79, 1-(7-(7-(5-methyl-1H-indazol-4-yl)-2-(1-(tetrahydrofuran-3-yl)piperidin-4-yl)-8-(2,2,2-trifluoroethoxy)-6-vinylquinazolin-4-yl)-2,7-diazspiro [3.5]nonan-2-yl) propyl-2-en-1-one]
4	4.1	C=CC(=O)N1CC2(CCN(c3nc(C4CCN(CC(C)(C)O)CC4)nc4c(OCC(F)(F)F)c(-c5c(C)ccc6[nH]ncc56)c(C=C)cc34)CC2)C1 [Example 60]
21	49.6	C=CC(=O)N1CC2(CCN(c3nc(C4CCN(C)CC4)nc4c(OCCOC)c(-c5c(C)ccc6[nH]ncc56)c(C5CC5)cc34)CC2)C1 [Example 22, 1-(7-(6-cyclopropyl-8-(2-methoxyethoxy)-7-(5-methyl-1H-indazol-4-yl)-2-(1-methylpiperidin-4-yl)quinazolin-4-yl)-2,7-diazaspiro[3.5]nonan-2-yl)prop-2-en-1-one]
50.5		C=CC(=O)N1CC2(CCN(c3nc(C4CCN(C)CC4)nc4c(C)c(-c5c(C)ccc6[nH]ncc56)c(C=C)cc34)CC2)C1 [Example 15, 1-(7-(8-methyl-7-(5-methyl-1H-indazol-4-yl)-2-(1-methylpiperidin-4-yl)-6-vinylquinazolin-4-yl)-2,7-diazaspiro[3.5]nonan-2-yl)prop-2-en-1-one]
8	4.9	C=CC(=O)N1CC2(CCN(c3nc(C4CCN(CCO)CC4)nc4c(OCC(F)(F)F)c(-c5c(C)ccc6[nH]ncc56)c(C=C)cc34)CC2)C1 [Example 61, 1-(7-(2-(1-(2-(hydroxyethyl))piperidin-4-yl)-7-(5-methyl-1H-indazole-4-yl)-8-(2,2,2-trifluoroethoxy)-6-vinylquinazolin-4-yl)-2,7-diazarospiro [3.5]nonan-2-yl) propyl-2-en-1-one]
22	26.3	C=CC(=O)N1CC2(CCN(c3nc(C4CCN(C)CC4)nc4c(OC)c(-c5c(C)ccc6[nH]ncc56)c(C=C)cc34)CC2)C1 [Example 13, 1-(7-(8-methoxy-7-(5-methyl-1H-indazol-4-yl)-2-(1-methylpiperidin-4-yl)-6-vinylquinazolin-4-yl)-2,7-diazaspiro[3.5]nonan-2-yl)prop-2-en-1-one]
105	163	C=CC(=O)N1CC2(CCN(c3nc(C4CCN(C)CC4)nc4c(OCC(F)(F)F)c(-c5c(C)cnc6[nH]ncc56)c(C=C)cc34)CC2)C1 [Example 53, 1-(7-(7-(5-methyl-1H-pyrazolo[3,4-b]pyridin-4-yl)-2-(1-methylpiperidine-4-yl)-8-(2,2,2-trifluoroethoxy)-6-vinylquinazolin-4-yl)-2,7-diazaspiro[3.5]nonan-2-yl)prop-2-en-1-one]
9600		C=CC(=O)N1CC2(CCN(c3nc(C4CCN(C)CC4)nc4c(Oc5c(C)ccc6[nH]ncc56)cccc34)CC2)C1 [Example 54]
188	462	C=CC(=O)N1CCC2(CC1)CN(c1nc(C3CCN(C)CC3)nc3c(OCC(F)(F)F)c(-c4c(C)ccc5[nH]ncc45)c(C=C)cc13)C2 [Example 51, 1-(2-(7-(5-methyl-1H-indazol-4-yl)-2-(1-methylpiperidin-4-yl)-8-(2,2,2-trifluoroethoxy)-6-vinylquinazolin-4-yl)-2,7-diazspiro [3.5]nonan-2-yl) propyl-2-en-1-one]
12.5	7.6	C=CC(=O)N1CC2(CCN(c3nc(C4CCN(C5CCN(C(=O)OCC)CC5)CC4)nc4c(OCC(F)(F)F)c(-c5c(C)ccc6[nH]ncc56)c(C=C)cc34)CC2)C1 [Example 82, Ethyl 4-(4-(2-acryloyl-2,7-diazspiro [3.5]nonan-7-yl)-7-(5-methyl-1H-indazole-4-yl)-8-(2,2,2-trifluoroethoxy) 6-vinylquinazolin-2-yl)-[1,4-bipiperidine]-1′-carboxylate]
91.7	124	C=CC(=O)N1CC2(CCN(c3nc(C4CCN(C(=O)OC)CC4)nc4c(OCC(F)F)c(-c5c(C)ccc6[nH]ncc56)c(C=C)cc34)CC2)C1 [Example 85, Methyl 4-(4-(2-acryloyl-2,7-diazazospiro [3.5]nonan-7-yl)-8-(2,2-difluoroethoxy)-7-(5-methyl-1H-indazole-4-yl)-6-vinylquinazolin-2-yl) piperidine-1-carboxylic acid]
42.9	69.7	C=CC(=O)N1CC2(CCN(c3nc(C4CCN(C)CC4)nc4c(OC5CCC5)c(-c5c(C)ccc6[nH]ncc56)c(Cl)cc34)CC2)C1 [Example 33]
91.9	20.4	C=CC(=O)N1CC2(CCN(c3nc(C4CCN(C)CC4)nc4c(OCC5CC5)c(-c5c(C)ccc6[nH]ncc56)c(CC)cc34)CC2)C1 [Example 31]
9.8	11.5	C=CC(=O)N1CC2(CCN(c3nc(C4CCN(C)CC4)nc4c(OCC5(C#N)CC5)c(-c5c(C)ccc6[nH]ncc56)c(C=C)cc34)CC2)C1 [Example 49]
2190	1940	Cc1ccc2[nH]ncc2c1-c1c(Cl)cc2c(N3CCC4(CC3)CN(C(=O)/C=C/CN(C)C)C4)nc(C3CCN(C)CC3)nc2c1OCC(F)(F)F [Example 87, (E)-1-(7-(6-chloro-7-(5-methyl-1H-indazol-4-yl)-2-(1-methylpiperidine-4-yl)-8-(2,2,2-trifluoroethoxy)quinazolin-4-yl)-2,7-diazaspiro[3.5]nonan-2-yl)-4-(dimethylamino) but-2-en-1-one]
24.1	24.3	C=CC(=O)N1CC2(CCN(c3nc(C4CCN(C5CCC(O)CC5)CC4)nc4c(OCC(F)(F)F)c(-c5c(C)ccc6[nH]ncc56)c(C=C)cc34)CC2)C1 (stereo not shown) [Example 73]
2290		C=CC(=O)N1CC2(CCN(c3nc(C4CCN(C)CC4)nc4c(OCC(F)(F)F)c(-c5ccc6cn[nH]c6c5)c(C5CC5)cc34)CC2)C1 [Example 19]
	2720	C=CC(=O)N1CC2(CCN(c3nc(C4CCN(C)CC4)nc4c(OCC(F)(F)F)c(-c5cc(F)cc(OC)c5)c(C5CC5)cc34)CC2)C1 [Example 21]
25		C=CC(=O)N1CC2(CCN(c3nc(C4CCN(C)CC4)nc4c(OCC)c(-c5c(C)ccc6[nH]ncc56)c(Cl)cc34)CC2)C1 [Example 10, 1-(7-(6-chloro-8-ethoxy-7-(5-methyl-1H-indazol-4-yl)-2-(1-methylpiperidine-4-yl)-quinazolin-4-yl)-2,7-diazaspiro[3.5]nonan-2-yl)prop-2-en-1-one]
